The results in this text go back to patent US5939416A, “Benzo (5,6) cycloheptapyridine compounds useful as farnesyl protein transferase inhibitors” (Schering Corporation, priority 1997, dated 1999).

Test [1] has as its target farnesyl protein transferase (Homo sapiens, UniProt P49354+P49356). As to the kind of experiment: FPT IC50 (inhibition of farnesyl protein transferase, in vitro enzyme assay). In kind it is biochemical. As for the experimental part:
(§1) FPT IC50 (inhibition of farnesyl protein transferase, in vitro enzyme assay), COS Cell IC50 (Cell-Based Assay), GGPT IC50 (inhibition of geranylgeranyl protein transferase, in vitro enzyme assay), Cell Mat Assay, and anti-tumor activity (in vivo anti-tumor studies) are determined by the assay procedures described in WO 95/10516.

A further test relates to COS Cell. As to the kind of experiment: COS Cell IC50 (Cell-Based Assay). As for the experimental part:
as §1

By IC50 is commonly meant the concentration that inhibits the measured activity by half. Low values mean greater potency, high ones weaker potency. As for `O=C1NCC(CC(=O)N2CCC(C3c4ncc(Br)cc4CCc4cc(Cl)cc(Cl)c43)CC2)CO1` (centres unmarked) [Example 1, 4-(3-Bromo-8,10-dichloro-6,11-dihydro-5H-benzo[5,6]cyclohepta[1,2-b]pyridin-11-yl)-1-[(tetrahydro-2-oxo-2H-1 3-oxazin-5-yl)acetyl]piperidine], the IC50 was determined as 15 nM in test [1] and 50 nM with COS Cell.

On to `O=C1NCC(CC(=O)N2CCC(C3c4ncc(Br)cc4CCc4cc(Cl)cc(Br)c43)CC2)CO1` (centres unmarked) [Example 2, 4-(3,10-Dibromo-8-chloro-6,11-dihydro-5H-benzo[5,6]cyclohepta[1,2-b]pyridin-11-yl)-1-[(tetrahydro-2-oxo-2H-1,3-oxazin-5-yl)acetyl]piperidine], for which the IC50 in test [1] came out at 3.98 nM; in the test on COS Cell it was 9 nM.

As to `O=C1N[C@H](C(=O)N2CCC(CC(=O)N3CCC([C@H]4c5ncc(Br)cc5CCc5cc(Cl)cc(Br)c54)CC3)CC2)CO1` [Example 3], the figures for the IC50 (in test [1]; in the test on COS Cell) were 2.3 nM and 7 nM, respectively.

For `O=C1NC[C@@H](C(=O)N2CCC(CC(=O)N3CCC([C@H]4c5ncc(Br)cc5CCc5cc(Cl)cc(Br)c54)CC3)CC2)N1` [Example 4], the figures for the IC50 (in test [1]; with COS Cell) were 1.8 nM and 33 nM, respectively.
